In patent US20250100947A1, “NITROUS OXIDE INHIBITOR” (His Majesty the King in Right of New Zealand Acting Through …, priority 2021, published 2025):

How the values were obtained:
[1] = test system: soil potential denitrification (DEA) enzyme activity; assay: Soil denitrification enzyme activity (DEA) short-term incubation; type: biochemical
Description: Short-term incubation studies were conducted to determine the effect of the compound of the invention on soil potential denitrification (DEA) enzyme activity. Details of each assay are described in Zhong et al. (2015, 2016).
The denitrification assay involved testing the effect of five ALBSO treatments: 0 (water only), carrier (formic acid only), low (0.011 μg ALBSO g^−1 dry soil), high (0.046 μg ALBSO g^−1 dry soil) and very high (0.91 μg ALBSO g^−1 dry soil) at a common N rate delivered as KNO3.
The ALBSO treatments were formulated with an absolute minimum amount of formic acid needed to just dissolve the required amount of ALBSO into solution. Identical amounts of formic acid were used to formulate the carrier, low, high and very high ALBSO treatments, with the carrier containing only formic acid and water. The pH of carrier, low, high and very high ALBSO treatment solutions was identical and mildly acidic.
After a 4-hour incubation period, N2O concentrations were lower (P<0.008) for incubation vessels that had been treated with ALBSO. […] Typically, results for this kind of incubation become unreliable after 6 hours, however, the 8 hour sampling in case the high level of N addition allowed for a longer period of microbial activity.
A further incubation was performed to test the effect of the carrier as well as the high rate of ALBSO on denitrification enzyme activity.
The final incubation included a treatment where acetylene was not added. The use of acetylene gives further information on whether the ALBSO effect on denitrification is due to effects on enzymes linked to nirK and nirS (with acetylene) or nosZ (without acetylene) genes. […] Letters refer to ALBSO effects within acetylene treatments (LSD 5.3, n=3).

[2] = test system: N2O emissions from urine-treated pasture soil; assay: Field trial, static chamber N2O emissions from simulated cattle urine patches; conditions: for Net emitted: control subtracted
Source text: A trial site was fenced off and stock excluded for about 14 weeks, until the commencement of the field trials, to avoid interference from fresh dung and urine inputs and reduce spatial heterogeneity/variability from the previous uneven deposition of dung and urine.
Approximately two weeks before the commencement of the trial, pasture was mown to 50 mm height, 4 soil samples (to 100 mm depth) were collected for physicochemical characterisation and Field plots were established in a randomised complete block design with 5 treatments as shown in Table 1. Plot size was 2.5×2.5 m for all treatments with an additional buffer area of at least 0.5 m between adjacent plots.
Natural urine deposition was simulated with 2 L cattle urine (containing 8.35 g N L^−1) in large static chambers allowing for urine edge-effect. All solutions containing a N2O inhibitor were applied at the same rate (30 mL/Chambers; 600 L/ha). For all urine treatments, 2 L urine was poured to the central point of the chamber base area at a height of approximately 1.2 m and allowed to spread naturally. To mimic the “Spikey®” urine patch treatment, a spot-sprayer system (supplied by Pastoral Robotics Limited) was used for treating the urine patch in the large chambers. All the inhibitor compositions were applied to the relevant treatments within 4 h after urine application.
A static chamber technique was used to measure N2O emissions, and the methodology was based on that used in a previous published study on N2O emissions (Luo et al 2015). One week before the trial began, static chamber bases (80 cm diameter) were inserted into the soil. Herbage within the chamber base and the ring areas was cut to 50 mm above ground level before the application of the treatments.
Pre-treatment gas flux was taken from each chamber a day before the application of treatments to determine the spatial variability of background of N2O flux between the plots and to assist with interpretation of patterns of N2O flux from individual sampling plots post treatment application as a covariate for statistical analysis of post-treatment emissions.
Post treatment gas measurements were carried out at 2, 24 and 72 h after application of the urine and inhibitor compositions, twice a week for the first 8 weeks and thereafter weekly. The measurements were continued until the N2O flux values for treatment plots reached the background levels measured in the control plots. During weekly phases of N2O flux measurement, additional sampling occurred as soon as practical following rainfall events of greater than 10 mm of rain in the previous 24 h. On each sampling day, N2O measurements were carried out between 1000 and 1200 h. Gas samples from chamber headspace were taken during a cover period of 100 minutes at times t0, […] (or similar). Two background atmosphere samples were also taken on each sampling day at each site. […] The measurements of N2O emission from the treatment plots continued until the first week of September. During this period, 3 pasture harvests were taken, and herbage samples analysed for N content.
Nitrous oxide concentration of gas samples were analysed by gas chromatograph using a Shimadzu GC-17a gas chromatograph equipped with a 63Ni-electroncapture detector (oven, valve and detector temperatures were operated at 65, 100 and 280° C., respectively, using oxygen-free N as a carrier gas and connected to an automatic sampler capable of handling up to 120 samples, and a SRI 8610 automated gas chromatograph. Chamber temperatures were recorded at the beginning and end of the cover period and the average of the two readings were considered the chamber temperature for calculating gas flux. The increase in N2O concentration within the chamber headspace, for the gas samples collected at t0, t50 and t100 was generally linear (R2>0.90). Therefore, the hourly N2O fluxes will be calculated using linear regression and the ideal gas law according to Equation 1: […]

[3] = test system: NO3^− leaching from grazed pasture soil; assay: Field lysimeter study of nitrate leaching from cow urine; conditions: for % Reduction of leaching due to inhibitor: compared to the urine only treatment, P<0.05; for Total leaching: cow urine 600 kg N ha^−1, inhibitor applied within 1 hour, DCD at 10 kg ha^−1, urine alone 358
Description: A field lysimeter study was conducted to examine the effects of albendazole sulfoxide on NO3^− leaching resulting from cow urine applied to a grazed pasture (at a loading rate of about 600 kg N ha^−1). The field lysimeter experiment was a randomized complete block design with the following treatments: • Control (no urine and no inhibitor) • Urine alone (600 kg N ha^−1) • Urine plus DCD (DCD solution at 10 kg ha^−1) • Urine plus albendazole sulfoxide (supplied by AgResearch Palmerston North)
Urine was collected from dairy cows that had been grazing an established ryegrass-white clover pasture. The cow urine was bulked and held at 4° C. for a few days prior to application. The urine was applied in a single application at an N loading rate of 600 kg N ha^−1 and a hydraulic loading rate of 10 L m^−2 to simulate dairy cow urine deposition. […] The treatments were replicated 6 times.
These urine and inhibitor treatments were also simultaneously applied to associated 0.5 m^2 plots so that soil samples could be taken throughout the trial to monitor mineral N transformations and moisture levels.
Leachate volumes were measured from the lysimeters when drainage occurred over the drainage period (May-October). Subsamples of leachate were collected and frozen at −20° C. prior to analysis for nitrate N(NO3^−N) and ammonium N(NH4^+—N) using a Skalar SAN^++ segmented auto flow analyser (Skalar Analytical B.V., Breda, Netherlands).

[4] = Urine + high concentration ALBSO (900 μg), UA1
[5] = Urine + low concentration ALBSO (266 μg), UA2

Compound: CCC[S+]([O-])c1ccc2[nH]c(NC(=O)OC)nc2c1 (stereo not drawn) [ALBSO, methyl [5-(propane-1-sulfinyl)-1H-benzoimidazol-2-yl]-carbamate]
- ppm N2O after 4 h ([1]; High (0.046 μg ALBSO g^−1 dry soil), first incubation, n=3, H2O 138): 102 ppm N2O
- ppm N2O after 8 h ([1]; High (0.046 μg ALBSO g^−1 dry soil), first incubation, H2O 236): 217 ppm N2O
- N2O concentration after 4-hour incubation, acetylene not added ([1]; High ALBSO, final incubation, n=3, Acetylene No, H2O 97.3): 84.7a ppm N2O
- N2O concentration after 4-hour incubation, acetylene added ([1]; High ALBSO, final incubation, n=3, Acetylene Yes, H2O 96.9): 90.9a ppm N2O
- ppm N2O after 4 h ([1]; High rate of ALBSO, further incubation with carrier, n=4, H2O 97): 90 ppm N2O
- ppm N2O after 8 h ([1]; High rate of ALBSO, further incubation with carrier, n=4, H2O 137): 131 ppm N2O
- ppm N2O after 4 h ([1]; Low (0.011 μg ALBSO g^−1 dry soil), first incubation, n=3, H2O 138): 96 ppm N2O
- ppm N2O after 8 h ([1]; Low (0.011 μg ALBSO g^−1 dry soil), first incubation, H2O 236): 233 ppm N2O
- ppm N2O after 4 h ([1]; Very High (0.91 μg ALBSO g^−1 dry soil), first incubation, n=3, H2O 138): 86 ppm N2O
- ppm N2O after 8 h ([1]; Very High (0.91 μg ALBSO g^−1 dry soil), first incubation, H2O 236): 232 ppm N2O
- N2O concentrations after 4-hour incubation, treated vs untreated vessels ([1]; all ALBSO amounts, P<0.008, 28° C., anaerobic): lower
- Effect on reducing N2O over both acetylene treatments ([1]; final incubation, P=0.005): significant effect of ALBSO on reducing N2O
- Total emitted ([2]; Urine 2 L + high concentration ALBSO (900 μg in 0.054M formic acid), UA1, cumulative over 4 months): 3703 g N2O—N
- Total emitted ([2]; Urine 2 L + low concentration ALBSO (266 μg in 0.054M formic acid), UA2, cumulative over 4 months): 3147 g N2O—N
- EF3 (% of applied N emitted) [2, 4]: 0.84 % of applied N emitted
- Net emitted [2, 4]: 2807 g N2O—N
- EF3 (% of applied N emitted) [2, 5]: 0.68 % of applied N emitted
- Net emitted [2, 5]: 2251 g N2O—N
- Emissions from treated urine ([2]; urine treated with low concentration ALBSO composition): 3147 g N2O—N ha^−1
- % Reduction of leaching due to inhibitor [3]: 20%
- Total leaching [3]: 289 kg NO3^−—N ha^−1

Compound: N#CN=C(N)N [DCD, dicyandiamide, reference compound]
- Total emitted ([2]; Urine 2 L (16.70 g N) + DCD (0.25 g N), UDCD, cumulative over 4-month measurement period): 3142 g N2O—N
- EF3 (% of applied N emitted) ([2]; Urine + DCD (0.25 g N), UDCD): 0.67 % of applied N emitted
- Net emitted ([2]; Urine + DCD (0.25 g N), UDCD): 2246 g N2O—N
- Emissions from treated urine ([2]; urine treated with DCD): 3142±300 g N2O—N ha^−1
- % Reduction of leaching due to inhibitor [3]: 30%
- Total leaching [3]: 253 kg NO3^−—N ha^−1
